Source: patent US20170037008A1, “PHENYL BENZYL ETHER DERIVATIVE AND PREPARATION METHOD AND APPLICATION THEREOF” (BEIJING ZHIBO BIO-MEDICAL TECHNOLOGY CO., LTD, priority 2013, published 2017)

Key:
[1] = Biological distribution in bodies of normal mice; format: in vivo, mice (ICR); conditions: caudal vein injection
Description: Through in-vivo distribution experiments, pharmacokinetic features, especially initial bran intake and brain removal situations of ^18F or ^125I labeled compounds in the bodies of mice are studied. […] Data are expressed in radioactive percentage dosage per organ (% ID/organ) and radioactive percentage dosage per gram of organ (% ID/g).

[2] = logD of labeled ligands; format: physicochemical
[3] = target: T1, Aβ1-42 aggregates (Homo sapiens, UniProt P05067); assay: In-vitro competitive binding experiments (Ki determination) with Aβ1-42 aggregates; conditions: for affinity with the Aβ1-42 aggregates compared with IMPY and PIB: competitive binding experiments
T1 construct: Preparing receptor Aβ1-42 proteins according to the existing method
Protocol: Binding reaction occurs between Aβ1-42 aggregate proteins with certain concentration and radioactive ligands [^125I] […] 4, the compounds are separated after balancing, and the inhibition constant (Ki) is calculated by determining radioactivity.
(1) Preparing 4 l of PBS (0.2M) buffer solution with pH=7.4;
(2) Preparing radioligand [^125]
(3) Preparing the compounds to be determined into 10^−3 to 10^−9 mol/L continuously diluted ethanol solution;
(4) Preparing receptor Aβ1-42 proteins according to the existing method and diluting the proteins into 30 nM water solution;
(5) Soaking a glass fiber filter membrane in PBS solution containing 0.1% (volume fraction) polyethyleneimine for 0.5 h;
(6) Respectively adding 100 μl of solution of compounds with different concentration and to be determined, 100 μl of [^125I]
(7) Oscillating and incubating for 2 h in 37° C. constant-temperature water bath;
(8) Collecting reaction liquid by using a multi-head cell collector, and washing the reaction liquid for three times by using PBS, 3 ml per time;
(9) Measuring and counting by using a γ counter; and […]

T1 sequence (P05067 672-713 limits assumed): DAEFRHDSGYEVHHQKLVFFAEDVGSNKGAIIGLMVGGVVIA

SMILES | Blood ([1]; 2 min) [% ID/g] | Brain ([1]; 2 min) [% ID/g] | Blood ([1]; 10 min) [% ID/g] | Brain ([1]; 10 min) [% ID/g] | Blood ([1]; 30 min) [% ID/g] | Brain ([1]; 30 min) [% ID/g] | Blood ([1]; 60 min) [% ID/g] | Brain ([1]; 60 min) [% ID/g] | logD [2] | Ki [3] [nM] | further results
FCCOc1ccc(COc2ccc([125I])cc2)cc1 [[^125I]35a] | 4.96 ± 0.35 | 5.27 ± 0.98 | 3.88 ± 0.79 | 2.28 ± 0.27 | 3.89 ± 0.53 | 0.81 ± 0.06 | 3.01 ± 1.07 | 0.37 ± 0.06 | [^125I]35a (logD = 2.50 ± 0.23) | – | Thyroid ([1]; 2 min): 0.13 ± 0.02 % ID/organ; Thyroid ([1]; 10 min): 0.13 ± 0.01 % ID/organ; Thyroid ([1]; 30 min): 0.19 ± 0.04 % ID/organ; Thyroid ([1]; 60 min): 0.34 ± 0.10 % ID/organ
COc1ccc(COc2ccc(OCC[18F])cc2)cc1 [[^18F] 53a] | 4.26 ± 0.41 | 9.95 ± 2.36 | 4.61 ± 0.95 | 2.77 ± 0.19 | 3.76 ± 0.19 | 1.44 ± 0.18 | 3.05 ± 1.09 | 1.30 ± 0.16 | [^18F] 53a (logD = 3.65 ± 0.04) | – | Bone ([1]; 2 min): 2.37 ± 0.69 % ID/organ; Bone ([1]; 10 min): 2.76 ± 0.47 % ID/organ; Bone ([1]; 30 min): 4.02 ± 0.78 % ID/organ; Bone ([1]; 60 min): 5.89 ± 0.49 % ID/organ
COc1ccc(OCc2ccc([125I])cc2)cc1 [[^125I]4] | 3.03 ± 0.54 | 6.18 ± 0.99 | 3.32 ± 0.65 | 3.54 ± 0.35 | 2.56 ± 0.93 | 0.88 ± 0.15 | 1.70 ± 0.50 | 0.38 ± 0.05 | [^125I]4 (logD = 4.00 ± 0.08) | – | Thyroid ([1]; 2 min): 0.14 ± 0.04 % ID/organ; Thyroid ([1]; 10 min): 0.12 ± 0.04 % ID/organ; Thyroid ([1]; 30 min): 0.08 ± 0.01 % ID/organ; Thyroid ([1]; 60 min): 0.11 ± 0.02 % ID/organ
COc1ccc(COc2ccc([125I])cc2)cc1 [[^125I]24] | 5.13 ± 0.62 | 4.29 ± 1.06 | 4.26 ± 0.38 | 2.11 ± 0.38 | 3.31 ± 0.79 | 0.73 ± 0.17 | 2.60 ± 1.33 | 0.32 ± 0.09 | [^125I]24 (logD = 4.16 ± 0.29) | – | Thyroid ([1]; 10 min): 0.07 ± 0.03 % ID/organ; Thyroid ([1]; 30 min): 0.17 ± 0.03 % ID/organ; Thyroid ([1]; 60 min): 0.19 ± 0.05 % ID/organ
CN(C)c1ccc(OCc2ccc([125I])cc2)cc1 [[^125I]22] | 4.01 ± 0.28 | 4.91 ± 0.60 | 2.46 ± 0.30 | 3.26 ± 0.24 | 2.53 ± 0.27 | 1.34 ± 0.12 | 1.34 ± 0.26 | 0.49 ± 0.07 | [^125I]22 (logD = 2.89 ± 0.09) | – | Thyroid ([1]; 2 min): 0.11 ± 0.03 % ID/organ; Thyroid ([1]; 10 min): 0.12 ± 0.03 % ID/organ; Thyroid ([1]; 30 min): 0.16 ± 0.04 % ID/organ; Thyroid ([1]; 60 min): 0.27 ± 0.04 % ID/organ
COc1ccc(COc2ccc(OCCOCCOCC[18F])cc2)cc1 [[^18F] 53b] | 3.95 ± 0.34 | 9.71 ± 1.31 | 4.14 ± 0.91 | 2.52 ± 0.20 | 3.40 ± 0.25 | 1.39 ± 0.10 | 2.36 ± 0.66 | 1.07 ± 0.10 | [^18F] 53b (logD = 3.04 ± 0.04) | – | Bone ([1]; 2 min): 1.36 ± 0.35 % ID/organ; Bone ([1]; 10 min): 1.22 ± 0.42 % ID/organ; Bone ([1]; 30 min): 1.39 ± 0.54 % ID/organ; Bone ([1]; 60 min): 1.52 ± 0.27 % ID/organ
COc1ccc(OCc2ccc(OCC[18F])cc2)cc1 [[^18F]44a] | 3.90 ± 0.25 | 7.54 ± 0.39 | 3.86 ± 0.24 | 3.32 ± 0.38 | 4.28 ± 0.23 | 2.77 ± 0.22 | 3.86 ± 0.39 | 2.33 ± 0.30 | [^18F]44a (logD = 3.05 ± 0.08) | – | Bone ([1]; 2 min): 1.50 ± 0.44 % ID/organ; Bone ([1]; 10 min): 1.04 ± 0.25 % ID/organ; Bone ([1]; 30 min): 1.43 ± 0.44 % ID/organ; Bone ([1]; 60 min): 4.05 ± 0.62 % ID/organ
FCCOc1ccc(COc2ccc(I)cc2)cc1 [Compound 35a, 1-(2-fluoroethoxy)-4-((4-iodophenoxy)methyl) benzene] | – | – | – | – | – | – | – | – | – | 23 ± 3.3 | affinity with the Aβ1-42 aggregates compared with IMPY and PIB [3]: higher than that of the known compounds IMPY and PIB
FCCOc1ccc(OCc2ccc(I)cc2)cc1 [Compound 31a, 1-(2-fluoroethoxy)-4-((4-iodobenzyl)oxy) benzene] | – | – | – | – | – | – | – | – | – | 24.1 ± 8.8 | affinity with the Aβ1-42 aggregates compared with IMPY and PIB [3]: higher than that of the known compounds IMPY and PIB
COc1ccc(COc2ccc(OCCF)cc2)cc1 [Compound 53a, 1-(2-fluoroethoxy)-4-(4 methoxybenzyloxy) benzene] | – | – | – | – | – | – | – | – | – | 465 ± 18.8 | –
COc1cccc(OCc2ccc(I)cc2)c1 [Compound 5, 1-(4-iodobenzyloxy)-3-methoxybenzene] | – | – | – | – | – | – | – | – | – | 154 ± 5.6 | –
Nc1ccccc1OCc1ccc(I)cc1 [Compound 18, 2-(4-iodobenzyloxy) aniline] | – | – | – | – | – | – | – | – | – | 1220 ± 58 | –
CNc1cccc(OCc2ccc(I)cc2)c1 [Compound 20, 3-(4-iodobenzyloxy)-N-methylaniline] | – | – | – | – | – | – | – | – | – | 702 ± 92.4 | –
CN(C)c1cccc(OCc2ccc(I)cc2)c1 [Compound 23, 3-(4-iodobenzyloxy)-N,N-dimethylaniline] | – | – | – | – | – | – | – | – | – | 1060 ± 104 | –
FCCOc1ccc(OCc2ccc([125I])cc2)cc1 [[^125I]31a] | 5.03 ± 0.20 | 7.04 ± 0.89 | 3.03 ± 0.48 | 2.73 ± 0.25 | 2.17 ± 0.31 | 1.05 ± 0.22 | – | 0.55 ± 0.11 | [^125I]31a (logD = 3.96 ± 0.22) | – | Thyroid ([1]; 2 min): 0.12 ± 0.02 % ID/organ; Thyroid ([1]; 10 min): 0.09 ± 0.02 % ID/organ; Thyroid ([1]; 30 min): 0.12 ± 0.01 % ID/organ; Thyroid ([1]; 60 min): 0.16 ± 0.03 % ID/organ
Oc1cccc(OCc2ccc(I)cc2)c1 [Compound 8, 3-(4-iodobenzyloxy) phenol] | – | – | – | – | – | – | – | – | – | 456 ± 135 | –
Brc1ccc(OCc2ccc(I)cc2)cc1 [Compound 12, 1-bromo-4-(4-iodobenzyloxy) benzene] | – | – | – | – | – | – | – | – | – | 14.1 ± 1.2 | affinity with the Aβ1-42 aggregates compared with IMPY and PIB [3]: higher than that of the known compounds IMPY and PIB
CC(C)(C)c1ccc(OCc2ccc(I)cc2)cc1 [Compound 15, 1-tert-butyl-4-(4-iodobenzyloxy) benzene] | – | – | – | – | – | – | – | – | – | 139 ± 20.9 | –
